From patent US20120252721A1 (priority 2011, published 2012)

How the values were obtained:
[1] = system: 1a-luc P32L (HCV genotype 1a replicon); experiment: Luciferase replicon transient transfection assay, 1a-luc P32L; type: cell-based, hepatitis C virus
Experimental: (§1) The luciferase replicon transient transfection assay measures the ability of a test compound to inhibit the replication of a transiently-transfected HCV luciferase-bearing wild-type or mutant replicon in cured human hepatoma cells (Huh7.5). The inhibition of HCV replication was measured by quantification of luciferase protein expression. This assay has been validated using a panel of genotype 1a and 1b replicons bearing mutations known to be associated with resistance to BMS-790052. Briefly, subconfluent Huh7.5 cells were electroporated with 10 μg of wild-type or mutant luciferase-bearing HCV replicon RNA. The cells were then seeded in 96-well opaque white plates at 3×10^4 cells/well in 150 μL/well and incubated for 4 hrs at 37° C./5% CO2. Ten 1:5 serial dilutions of each test compound were made in media (DMEM containing glucose, L-glutamine and sodium pyruvate, 10% fetal bovine serum, 100 IU/mL penicillin, 100 μg/mL streptomycin, 2 mM GlutaMAX, and 1×MEM non-essential amino acids (Mediatech, Inc. and Invitrogen Corp.)) at concentrations that were 4× higher than the final concentrations to be tested and 50 μL/well was added to the transfected cells. Untreated, mock-transfected cells served as a negative control of luciferase expression. The plates were incubated at 37° C./5% CO2 for 4 days whereupon the media was removed and 50 μL of ONE-glo luciferase substrate (Promega) was added to each well. The plates were agitated on a rotating platform at room temperature for 3 min and read in a Victor^3V microplate reader (Perkin-Elmer) using a 700 nm cut-off filter with a 1 sec read time. EC50 values were calculated from dose response curves from the resulting best-fit equations determined by Microsoft Excel and XLfit 4.1 software.

[2] = system: ZS11-luc L31V (HCV genotype 1b replicon); experiment: Luciferase replicon transient transfection assay, ZS11-luc L31V; type: cell-based, hepatitis C virus
Experimental: as §1

[3] = system: ZS11-luc Y93H (HCV genotype 1b replicon); experiment: Luciferase replicon transient transfection assay, ZS11-luc Y93H; type: cell-based, hepatitis C virus
Experimental: as §1

[4] = system: ZS11-luc WT (HCV genotype 1b replicon); experiment: Luciferase replicon transient transfection assay, ZS11-luc WT; type: cell-based, hepatitis C virus; conditions: Hepatitis C virus, Huh7.5, 96 h, genotype 1b, ZS11-luc WT, Huh7.5 cells, 4 days
Experimental: as §1

[5] = system: 1a-luc Y93C (HCV genotype 1a replicon); experiment: Luciferase replicon transient transfection assay, 1a-luc Y93C; type: cell-based, hepatitis C virus
Experimental: as §1

[6] = system: 1a-luc Q30E (HCV genotype 1a replicon); experiment: Luciferase replicon transient transfection assay, 1a-luc Q30E; type: cell-based, hepatitis C virus
Experimental: as §1

[7] = system: 1a-luc WT (HCV genotype 1a replicon); experiment: Luciferase replicon transient transfection assay, 1a-luc WT; type: cell-based; conditions: Hepatitis C virus, 96 h, Huh7.5 cells, 4 days
Experimental: as §1

[8] = system: ZS11-luc L31M (HCV genotype 1b replicon); experiment: Luciferase replicon transient transfection assay, ZS11-luc L31M; type: cell-based, hepatitis C virus
Experimental: as §1

[9] = system: HCV genotype 1a replicon, NS5A E295G; experiment: Luciferase replicon transient transfection assay, genotype 1a NS5A E295G; type: cell-based, hepatitis C virus
Experimental: as §1

[10] = system: 1a-luc Q30K (HCV genotype 1a replicon); experiment: Luciferase replicon transient transfection assay, 1a-luc Q30K; type: cell-based, hepatitis C virus
Experimental: as §1

[11] = system: 1a-luc Q30R (HCV genotype 1a replicon); experiment: Luciferase replicon transient transfection assay, 1a-luc Q30R; type: cell-based, hepatitis C virus
Experimental: as §1

[12] = system: 1a-luc Q30H (HCV genotype 1a replicon); experiment: Luciferase replicon transient transfection assay, 1a-luc Q30H; type: cell-based, hepatitis C virus
Experimental: as §1

[13] = system: 1a-luc L31M (HCV genotype 1a replicon); experiment: Luciferase replicon transient transfection assay, 1a-luc L31M; type: cell-based, hepatitis C virus
Experimental: as §1

[14] = system: ZS11-luc Y93C (HCV genotype 1b replicon); experiment: Luciferase replicon transient transfection assay, ZS11-luc Y93C; type: cell-based, hepatitis C virus
Experimental: as §1

[15] = system: ZS11-luc Y93N (HCV genotype 1b replicon); experiment: Luciferase replicon transient transfection assay, ZS11-luc Y93N; type: cell-based, hepatitis C virus
Experimental: as §1

[16] = system: 1a-luc Y93H (HCV genotype 1a replicon); experiment: Luciferase replicon transient transfection assay, 1a-luc Y93H; type: cell-based, hepatitis C virus
Experimental: as §1

[17] = system: HCV genotype 1a replicon, NS5A K24E; experiment: Luciferase replicon transient transfection assay, genotype 1a NS5A K24E; type: cell-based, hepatitis C virus
Experimental: as §1

[18] = system: 1a-luc L31F (HCV genotype 1a replicon); experiment: Luciferase replicon transient transfection assay, 1a-luc L31F; type: cell-based, hepatitis C virus
Experimental: as §1

[19] = system: 1a-luc M28T (HCV genotype 1a replicon); experiment: Luciferase replicon transient transfection assay, 1a-luc M28T; type: cell-based, hepatitis C virus
Experimental: as §1

[20] = system: 1a-luc Y93N (HCV genotype 1a replicon); experiment: Luciferase replicon transient transfection assay, 1a-luc Y93N; type: cell-based, hepatitis C virus
Experimental: as §1

[21] = system: ZS11-luc P32L (HCV genotype 1b replicon); experiment: Luciferase replicon transient transfection assay, ZS11-luc P32L; type: cell-based, hepatitis C virus
Experimental: as §1

[22] = system: ZS11-luc L28T (HCV genotype 1b replicon); experiment: Luciferase replicon transient transfection assay, ZS11-luc L28T; type: cell-based, hepatitis C virus
Experimental: as §1

[23] = system: HCV genotype 1a replicon, NS3 T260A; experiment: Luciferase replicon transient transfection assay, genotype 1a NS3 T260A; type: cell-based, hepatitis C virus
Experimental: as §1
(§2) To determine the replication capacity of each mutant relative to the wild-type parental replicon, transfected cells were plated on two plates and were not treated with compound. Luciferase activity was measured at time points of 4 hrs and 4 days after plating for each replicon. Replication capacity was calculated by dividing the day 4 CPS by the 4 hour CPS for each replicon and determining the percentage present for each mutant replicon relative to wild-type replicon values. The NS3, NS4B, and NS5B mutants were prepared and tested according to the methods described herein.

[24] = system: 1a-luc L31V (HCV genotype 1a replicon); experiment: Luciferase replicon transient transfection assay, 1a-luc L31V; type: cell-based, hepatitis C virus
Experimental: as §1

[25] = system: ZS11-luc R30E (HCV genotype 1b replicon); experiment: Luciferase replicon transient transfection assay, ZS11-luc R30E; type: cell-based, hepatitis C virus
Experimental: as §1

[26] = system: HCV genotype 1a replicon, NS4B E15G; experiment: Luciferase replicon transient transfection assay, genotype 1a NS4B E15G; type: cell-based, hepatitis C virus
Experimental: as §1, §2

[27] = system: ZS11-luc L31F (HCV genotype 1b replicon); experiment: Luciferase replicon transient transfection assay, ZS11-luc L31F; type: cell-based, hepatitis C virus
Experimental: as §1

[28] = Hepatitis C virus, 96 h, Huh7.5 cells, 4 days

## COC(=O)N[C@H](C(=O)N1CCC[C@H]1c1nc(-c2ccc(-c3ccc(-c4c[nH]c([C@@H]5CCCN5C(=O)[C@@H](NC(=O)OC)C(C)C)n4)cc3)cc2)c[nH]1)C(C)C [BMS-790052, reference compound]
[1]
  Ratio: 142
[1]; [28]
  EC50: 4 nM
[2]
  Ratio: 23
[2]; [28]
  EC50: 0.4 nM
[3]
  Ratio: 19
[3]; [28]
  EC50: 0.4 nM
[4]
  EC50: 0.02 nM
[5]
  Ratio: 287
[5]; [28]
  EC50: 7 nM
[6]
  Ratio: 2935
[6]; [28]
  EC50: 74 nM
[7]
  EC50: 0.026 nM
[8]
  Ratio: 3
[8]; [28]
  EC50: 0.06 nM
[9]; Hepatitis C virus, genotype 1a, HCV region NS5A, mutation E295G
  EC50: 0.028 nM
[9]; {}
  Ratio: 1.56
[10]
  Ratio: 752
[10]; [28]
  EC50: 19 nM
[11]
  Ratio: 95
[11]; [28]
  EC50: 2 nM
[12]
  Ratio: 155
[12]; [28]
  EC50: 4 nM
[13]
  Ratio: 115
[13]; [28]
  EC50: 3 nM
[14]
  Ratio: 2
[14]; [28]
  EC50: 0.04 nM
[15]
  Ratio: 33
[15]; [28]
  EC50: 0.7 nM
[16]
  Ratio: 1392
[16]; [28]
  EC50: 35 nM
[17]; Hepatitis C virus, genotype 1a, HCV region NS5A, mutation K24E
  EC50: 0.032 nM
[17]; {}
  Ratio: 1.78
[18]
  Ratio: 43
[18]; [28]
  EC50: 1 nM
[19]
  Ratio: 165
[19]; [28]
  EC50: 4 nM
[20]
  Ratio: 7842
[20]; [28]
  EC50: 192 nM
[21]
  Ratio: 9
[21]; [28]
  EC50: 0.2 nM
[22]
  Ratio: 25
[22]; [28]
  EC50: 0.5 nM
[23]; Hepatitis C virus, genotype 1a, HCV region NS3, mutation T260A
  EC50: 0.031 nM
[23]; {}
  Ratio: 1.74
[24]
  Ratio: 899
[24]; [28]
  EC50: 23 nM
[25]
  Ratio: 7
[25]; [28]
  EC50: 0.1 nM
[26]; Hepatitis C virus, HCV region NS4B, mutation E15G
  EC50: 0.029 nM
[26]; NS4B E15G
  Ratio: 1.62
[27]
  Ratio: 7
[27]; [28]
  EC50: 0.1 nM
